Consider 32 molecules from patent publication US11186554B2, “Non-fused tricyclic compounds” (VIVACE THERAPEUTICS, INC., priority 2017, dated 2021).

For the first experiment, the system named is firefly luciferase activity. The experiment can be described thus: Dual-Glo firefly/renilla luciferase reporter assay in cells. The class given is cell-based. Particulars: 24 h, read-out: Firefly Luciferase IC50 (μM).
As usually defined, the IC50 is the midpoint of a concentration-inhibition curve. As for `CCOC(=O)Cn1nnc(-c2ccccc2Nc2ccc(F)cc2)n1` [Compound 7, ethyl 2-[5-[2-(4-fluoroanilino)phenyl]tetrazol-2-yl]acetate], the half-maximal inhibitory concentration (IC50) lay within 0.1 to 1 µM.

In the case of `OCCn1nnc(-c2ccccc2Nc2ccc(F)cc2)n1` [Compound 8, 2-[5-[2-(4-fluoroanilino)phenyl]tetrazol-2-yl]ethanol], the IC50 is 0.1 to 1 µM.

Turning to `CCc1ccc(Nc2ccccc2-c2nnn(CCO)n2)cc1` [Compound 9, 2-[5-[2-(4-ethylanilino)phenyl]tetrazol-2-yl]ethanol], the IC50 was in the range of 0.1 to 1 µM.

As for `OCCn1nnc(-c2ccccc2Nc2cccc(F)c2)n1` [Compound 10, 2-(5-(2-((3-fluorophenyl)amino)phenyl)-2H-tetrazol-2-yl)ethanol], the IC50 was 0.1 to 1 µM.

With `OCCn1nnc(-c2ccccc2Nc2ccc(OC(F)(F)F)cc2)n1` [Compound 11, 2-(5-(2-((4-(Trifluoromethoxy)phenyl)amino)phenyl)-2H-tetrazol-2-yl)ethanol], the IC50 was less than 0.1 µM.

For the molecule `COc1ccc(Nc2ccccc2-c2nnn(CCO)n2)cc1` [Compound 12, 2-[5-[2-(4-methoxyanilino)phenyl]tetrazol-2-yl]ethanol], the IC50 lay in the range of 0.1 to 1 µM.

For the molecule `CCc1cccc(Nc2ccccc2-c2nnn(CCO)n2)c1` [Compound 17, 2-[5-[2-(3-ethylanilino)phenyl]tetrazol-2-yl]ethanol], the IC50 was 0.1 to 1 µM.

As for `CCOC(=O)Cn1cc(-c2ccccc2Nc2cccc(C(F)(F)F)c2)nn1` [Compound 18, Ethyl 2-[4-[2-[3-(trifluoromethyl)anilino]phenyl]triazol-1-yl]acetate], the IC50 is 1 to 5 µM.

In the case of `OCCn1nnc(-c2ccccc2Nc2ccc(SC(F)F)cc2)n1` [Compound 31, 2-[5-[2-[4-(difluoromethylsulfanyl)anilino]phenyl]tetrazol-2-yl]ethanol], the IC50 fell in the range of 0.1 to 1 µM.

As to `OCCn1nnc(-c2ccccc2Nc2ccccc2F)n1` [Compound 36, 2-(5-(2-((2-fluorophenyl)amino)phenyl)-2H-tetrazol-2-yl)ethanol], the IC50 fell in the range of 1 to 5 µM.

Regarding `OCCn1cnc(-c2ccccc2Nc2cccc(C(F)(F)F)c2)n1` [Compound 39, 2-(3-(2-((3-(trifluoromethyl)phenyl)amino)phenyl)-1H-1,2,4-triazol-1-yl)ethanol], the IC50 lay within 1 to 5 µM.

As to `CN(C)C(=O)Cn1nnc(-c2ccccc2Nc2ccc(C(F)(F)F)cc2)n1` [Compound 43, N,N-dimethyl-2-[5-[2-[4-(trifluoromethyl)anilino]phenyl]tetrazol-2-yl]acetamide], the IC50 was 0.1 to 1 µM.

Take `CNC(=O)Cn1nnc(-c2ccccc2Nc2ccc(OC(F)(F)F)cc2)n1` [Compound 46, N-methyl-2-[5-[2-[4-(trifluoromethoxy)anilino]phenyl]tetrazol-2-yl]acetamide]: the IC50 lay within 0.1 to 1 µM.

In the case of `CN(C)CCn1nnc(-c2ccccc2Nc2ccc(C(F)(F)F)cc2)n1` [Compound 50, 2-[2-[2-(dimethylamino)ethyl]tetrazol-5-yl]-N-[4-(trifluoromethyl)phenyl]aniline], the IC50 lay within 0.1 to 1 µM.

The same experiment, now with this note: 24 hrs compound treatment, starting from 3 uM, 1:3 dilution, 10 points; read-out: Firefly Luciferase IC50.
Regarding `OCCn1nnc(-c2ccccc2Nc2cccc(C(F)(F)F)c2)n1` [Compound 3, 2-[5-[2-[3-(trifluoromethyl)anilino]phenyl]tetrazol-2-yl]ethanol], the IC50 was in the range of 1 to 5 µM.

On to `COCCn1nnc(-c2ccccc2Nc2cccc(C(F)(F)F)c2)n1` [Compound 5, 2-[2-(2-methoxyethyl)tetrazol-5-yl]-N-[3-(trifluoromethyl)phenyl]aniline], for which the IC50 fell in the range of 1 to 5 µM.

For `OCCCn1nnc(-c2ccccc2Nc2cccc(C(F)(F)F)c2)n1` [Compound 13, 3-[5-[2-[3-(trifluoromethyl)anilino]phenyl]tetrazol-2-yl]propan-1-ol], the IC50 was in the range of 0.1 to 1 µM.

`OCCn1nnc(-c2ccccc2Nc2ccc(C(F)(F)F)cc2)n1` [Compound 23, 2-(5-(2-((4-(Trifluoromethyl)phenyl)amino)phenyl)-2H-tetrazol-2-yl)ethanol]: the 50% inhibitory concentration (IC50) is less than 0.1 µM.

With `OCCn1nnc(-c2ccccc2Nc2cccc(OC(F)(F)F)c2)n1` [Compound 24, 2-(5-(2-((3-(Trifluoromethoxy)phenyl)amino)phenyl)-2H-tetrazol-2-yl)ethanol], the IC50 fell in the range of 0.1 to 1 µM.

Take `OCCn1nnc(-c2ccccc2Nc2ccc(F)c(F)c2)n1` [Compound 25, 2-[5-[2-(3,4-difluoroanilino)phenyl]tetrazol-2-yl]ethanol]: the IC50 was in the range of 0.1 to 1 µM.

Consider `OCCn1nnc(-c2ccccc2Nc2ccc(F)cc2F)n1` [Compound 28, 2-(5-(2-((2,4-difluorophenyl)amino)phenyl)-2H-tetrazol-2-yl)ethan-1-ol], for which the IC50 was in the range of 0.1 to 1 µM.

Consider `FC(F)(F)c1ccc(Nc2ccccc2-c2nnn(Cc3cccnc3)n2)cc1` [Compound 40, 2-[2-(3-pyridylmethyl)tetrazol-5-yl]-N-[4-(trifluoromethyl)phenyl]aniline], for which the IC50 is 0.1 to 1 µM.

Take `FC(F)(F)c1ccc(Nc2ccccc2-c2nnn(Cc3ccncc3)n2)cc1` [Compound 41, 2-[2-(4-pyridylmethyl)tetrazol-5-yl]-N-[4-(trifluoromethyl)phenyl]aniline]: the IC50 fell in the range of 0.1 to 1 µM.

In the case of `CNC(=O)Cn1nnc(-c2ccccc2Nc2ccc(C(F)(F)F)cc2)n1` [Compound 42, N-methyl-2-[5-[2-[4-(trifluoromethyl)anilino]phenyl]tetrazol-2-yl]acetamide], the IC50 was less than 0.1 µM.

For `CCN(CC)C(=O)Cn1nnc(-c2ccccc2Nc2ccc(C(F)(F)F)cc2)n1` [Compound 44, N,N-diethyl-2-[5-[2-[4-(trifluoromethyl)anilino]phenyl]tetrazol-2-yl]acetamide], the IC50 fell in the range of 1 to 5 µM.

For `O=C(Cn1nnc(-c2ccccc2Nc2ccc(C(F)(F)F)cc2)n1)N1CCCC1` [Compound 45, 1-pyrrolidin-1-yl-2-[5-[2-[4-(trifluoromethyl)anilino]phenyl]tetrazol-2-yl]ethanone], the IC50 was 0.1 to 1 µM.

Take `FC(F)(F)Oc1ccc(Nc2ccccc2-c2nnn(Cc3cccnc3)n2)cc1` [Compound 51, 2-[2-(3-pyridylmethyl)tetrazol-5-yl]-N-[4-(trifluoromethoxy)phenyl]aniline]: the IC50 was in the range of 1 to 5 µM.

For `FC(F)(F)c1ccc(Nc2ccccc2-c2nnn(Cc3ccccn3)n2)cc1` [Compound 52, 2-[2-(2-pyridylmethyl)tetrazol-5-yl]-N-[4-(trifluoromethyl)phenyl]aniline], the IC50 lay in the range of 0.1 to 1 µM.

For the molecule `FC(F)(F)Oc1ccc(Nc2ccccc2-c2nnn(Cc3ccncc3)n2)cc1` [Compound 53, 2-[2-(4-pyridylmethyl)tetrazol-5-yl]-N-[4-(trifluoromethoxy)phenyl]aniline], the IC50 lay in the range of 1 to 5 µM.

Turning to `FC(F)(F)Oc1ccc(Nc2ccccc2-c2nnn(Cc3ccccn3)n2)cc1` [Compound 54, 2-(2-(pyridin-2-ylmethyl)-2H-tetrazol-5-yl)-N-(4-(trifluoromethoxy)phenyl)aniline], the IC50 lay within 1 to 5 µM.

Regarding `CCOC(=O)Cn1cc(-c2ccccc2Nc2cccc(C(F)(F)F)c2)cn1` [Compound 58, ethyl 2-(4-(2-((3-(trifluoromethyl)phenyl)amino)phenyl)-1H-pyrazol-1-yl)acetate], the IC50 was in the range of 0.1 to 1 µM.

Consider `CCOC(=O)Cn1cc(-c2ccccc2Nc2ccc(C(F)(F)F)cc2)cn1` [Compound 60, ethyl 2-(4-(2-((4-(trifluoromethyl)phenyl)amino)phenyl)-1H-pyrazol-1-yl)acetate], for which the IC50 was less than 0.1 µM.
